Experiment [1] deals with MDA-MB-468. The experiment in a line: Growth inhibition of human MDA-MB-468 cells assessed as cell growth at 10 uM incubated for 48 hrs by sulforhodamine B assay relative to control. It is filed as functional. Particulars: MDA-MB-468, 48 h, read-out: Activity.
For experiment [2], the system named is MDA-MB-468. The experiment in a line: Growth inhibition of human MDA-MB-468 cells assessed as cell growth at 3 uM incubated for 48 hrs by sulforhodamine B assay relative to control. The class given is functional. Conditions: MDA-MB-468, 48 h, read-out: Activity. For orientation: Sulforhodamine B stains cellular protein and so reports cell mass.
The test system of another experiment is HOP-62. The experiment in a line: Growth inhibition of human HOP62 cells assessed as cell growth at 50 uM incubated for 48 hrs by sulforhodamine B assay relative to control. Conditions: HOP-62, 48 h, read-out: Activity. The class given is functional.
Another experiment has as its system Hs-578T. The experiment in a line: Growth inhibition of human Hs 578T cells assessed as cell growth at 0.05 uM incubated for 48 hrs by sulforhodamine B assay relative to control. The class given is functional. Conditions: read-out: Activity.
A further experiment concerns HL-60(TB). The experiment in a line: Growth inhibition of human HL-60(TB) cells assessed as cell growth at 0.05 uM incubated for 48 hrs by sulforhodamine B assay relative to control. The class given is functional. Particulars: HL-60, 48 h, read-out: Activity.
In another experiment the test system is HCT-15. The experiment in a line: Growth inhibition of human HCT15 cells assessed as cell growth at 0.5 uM incubated for 48 hrs by sulforhodamine B assay relative to control. The class given is functional. Conditions: HCT-15, 48 h, read-out: Activity.
The test system of another experiment is EKVX. The experiment in a line: Growth inhibition of human EKVX cells assessed as cell growth at 0.05 uM incubated for 48 hrs by sulforhodamine B assay relative to control. It is filed as functional. Particulars: read-out: Activity.
The subject of a further experiment is SK-OV-3. The experiment in a line: Growth inhibition of human SKOV3 cells assessed as cell growth at 0.005 uM incubated for 48 hrs by sulforhodamine B assay relative to control. It is filed as functional. Particulars: SK-OV-3, 48 h, read-out: Activity.
A further experiment has as its system M14. The experiment in a line: Growth inhibition of human M14 cells assessed as cell growth at 50 uM incubated for 48 hrs by sulforhodamine B assay relative to control. The class given is functional. Conditions: M14, 48 h, read-out: Activity.
The subject of another experiment is SR. The experiment in a line: Growth inhibition of human SR cells assessed as cell growth at 0.5 uM incubated for 48 hrs by sulforhodamine B assay relative to control. It is filed as functional. Particulars: read-out: Activity.
The test system of a further experiment is NCI/ADR-RES. The experiment in a line: Growth inhibition of human NCI/ADR-RES cells assessed as cell growth at 0.05 uM incubated for 48 hrs by sulforhodamine B assay relative to control. The class given is functional. Particulars: read-out: Activity.
Another experiment has as its system RPMI-8226. The experiment in a line: Growth inhibition of human RPMI8226 cells assessed as cell growth at 0.005 uM incubated for 48 hrs by sulforhodamine B assay relative to control. Particulars: RPMI-8226, 48 h, read-out: Activity. The class given is functional.
A further experiment relates to HCC 2998. The experiment in a line: Growth inhibition of human HCC2998 cells assessed as cell growth at 0.05 uM incubated for 48 hrs by sulforhodamine B assay relative to control. Particulars: HCC 2998, 48 h, read-out: Activity. It is filed as functional.
The subject of experiment [3] is MDA-MB-435. The experiment in a line: Growth inhibition of human MDA-MB-435 cells assessed as cell growth at 0.5 uM incubated for 48 hrs by sulforhodamine B assay relative to control. It is filed as functional. Particulars: MDA-MB-435, 48 h, read-out: Activity.
The subject of a further experiment is SK-MEL-5. The experiment in a line: Growth inhibition of human SK-MEL-5 cells assessed as cell growth at 0.005 uM incubated for 48 hrs by sulforhodamine B assay relative to control. The class given is functional. Conditions: SK-MEL-5, 48 h, read-out: Activity.
A further experiment deals with NCI-H322M. The experiment in a line: Growth inhibition of human NCI-H322M cells assessed as cell growth at 0.005 uM incubated for 48 hrs by sulforhodamine B assay relative to control. It is filed as functional. Particulars: read-out: Activity.
Experiment [4] deals with MDA-MB-435. The experiment in a line: Growth inhibition of human MDA-MB-435 cells assessed as cell growth at 0.05 uM incubated for 48 hrs by sulforhodamine B assay relative to control. The class given is functional. Conditions: MDA-MB-435, 48 h, read-out: Activity.
The subject of another experiment is OVCAR-4. The experiment in a line: Growth inhibition of human OVCAR4 cells assessed as cell growth at 0.5 uM incubated for 48 hrs by sulforhodamine B assay relative to control. Particulars: OVCAR-4, 48 h, read-out: Activity. It is filed as functional.
In the next experiment the test system is OVCAR-3. The experiment in a line: Growth inhibition of human OVCAR3 cells assessed as cell growth at 5 uM incubated for 48 hrs by sulforhodamine B assay relative to control. It is filed as functional. Particulars: OVCAR-3, 48 h, read-out: Activity.
A further experiment has as its system SF-539. The experiment in a line: Growth inhibition of human SF539 cells assessed as cell growth at 0.005 uM incubated for 48 hrs by sulforhodamine B assay relative to control. It is filed as functional. Particulars: SF-539, 48 h, read-out: Activity.
For experiment [5], the system named is A549. The experiment in a line: Growth inhibition of human A549/ATCC cells assessed as cell growth at 50 uM incubated for 48 hrs by sulforhodamine B assay relative to control. Conditions: A549, 48 h, read-out: Activity. The class given is functional.
The next experiment concerns SK-MEL-28. The experiment in a line: Growth inhibition of human SK-MEL-28 cells assessed as cell growth at 0.5 uM incubated for 48 hrs by sulforhodamine B assay relative to control. Conditions: SK-MEL-28, 48 h, read-out: Activity. The class given is functional.
The subject of experiment [6] is A549. The experiment in a line: Growth inhibition of human A549/ATCC cells assessed as cell growth at 0.5 uM incubated for 48 hrs by sulforhodamine B assay relative to control. The class given is functional. Particulars: A549, 48 h, read-out: Activity.
The test system of a further experiment is MCF7. The experiment in a line: Growth inhibition of human MCF7 cells assessed as cell growth at 0.005 uM incubated for 48 hrs by sulforhodamine B assay relative to control. Conditions: MCF7, 48 h, read-out: Activity. The class given is functional.
For another experiment, the system named is SN12C. The experiment in a line: Growth inhibition of human SN12C cells assessed as cell growth at 0.005 uM incubated for 48 hrs by sulforhodamine B assay relative to control. The class given is functional. Particulars: read-out: Activity.
The next experiment relates to IGROV-1. The experiment in a line: Growth inhibition of human IGROV1 cells assessed as cell growth at 5 uM incubated for 48 hrs by sulforhodamine B assay relative to control. The class given is functional. Conditions: IGROV-1, 48 h, read-out: Activity.
The next experiment relates to U-251. The experiment in a line: Growth inhibition of human U251 cells assessed as cell growth at 0.005 uM incubated for 48 hrs by sulforhodamine B assay relative to control. It is filed as functional. Particulars: U-251, 48 h, read-out: Activity.
In another experiment the test system is KM12. The experiment in a line: Growth inhibition of human KM12 cells assessed as cell growth at 50 uM incubated for 48 hrs by sulforhodamine B assay relative to control. It is filed as functional. Conditions: KM12, 48 h, read-out: Activity.
Experiment [7] concerns T47D. The experiment in a line: Growth inhibition of human T47D cells assessed as cell growth at 5 uM incubated for 48 hrs by sulforhodamine B assay relative to control. The class given is functional. Conditions: read-out: Activity.
For a further experiment, the system named is K562. The experiment in a line: Growth inhibition of human K562 cells assessed as cell growth at 0.5 uM incubated for 48 hrs by sulforhodamine B assay relative to control. Conditions: K562, 48 h, read-out: Activity. The class given is functional.
Experiment [8] deals with T47D. The experiment in a line: Growth inhibition of human T47D cells assessed as cell growth at 0.5 uM incubated for 48 hrs by sulforhodamine B assay relative to control. The class given is functional. Particulars: read-out: Activity.
The subject of experiment [9] is LOX IMVI. The experiment in a line: Growth inhibition of human LOXIMVI cells assessed as cell growth at 0.3 uM incubated for 48 hrs by sulforhodamine B assay relative to control. The class given is functional. Particulars: read-out: Activity.
Experiment [10] has as its system Serine/threonine-protein kinase B-raf (Homo sapiens), P15056 [V600E]. The experiment in a line: Inhibition of human BRAF V600E mutant at 10 uM using MEK1 as substrate in presence of [33P]ATP by Hotspot assay relative to control.
Experiment [11] concerns LOX IMVI. The experiment in a line: Growth inhibition of human LOXIMVI cells assessed as cell growth at 0.03 uM incubated for 48 hrs by sulforhodamine B assay relative to control. It is filed as functional. Particulars: read-out: Activity.

Each structure is given as a SMILES string.

Chain of Serine/threonine-protein kinase B-raf (Homo sapiens), P15056 [V600E] (P15056 whole entry V600E): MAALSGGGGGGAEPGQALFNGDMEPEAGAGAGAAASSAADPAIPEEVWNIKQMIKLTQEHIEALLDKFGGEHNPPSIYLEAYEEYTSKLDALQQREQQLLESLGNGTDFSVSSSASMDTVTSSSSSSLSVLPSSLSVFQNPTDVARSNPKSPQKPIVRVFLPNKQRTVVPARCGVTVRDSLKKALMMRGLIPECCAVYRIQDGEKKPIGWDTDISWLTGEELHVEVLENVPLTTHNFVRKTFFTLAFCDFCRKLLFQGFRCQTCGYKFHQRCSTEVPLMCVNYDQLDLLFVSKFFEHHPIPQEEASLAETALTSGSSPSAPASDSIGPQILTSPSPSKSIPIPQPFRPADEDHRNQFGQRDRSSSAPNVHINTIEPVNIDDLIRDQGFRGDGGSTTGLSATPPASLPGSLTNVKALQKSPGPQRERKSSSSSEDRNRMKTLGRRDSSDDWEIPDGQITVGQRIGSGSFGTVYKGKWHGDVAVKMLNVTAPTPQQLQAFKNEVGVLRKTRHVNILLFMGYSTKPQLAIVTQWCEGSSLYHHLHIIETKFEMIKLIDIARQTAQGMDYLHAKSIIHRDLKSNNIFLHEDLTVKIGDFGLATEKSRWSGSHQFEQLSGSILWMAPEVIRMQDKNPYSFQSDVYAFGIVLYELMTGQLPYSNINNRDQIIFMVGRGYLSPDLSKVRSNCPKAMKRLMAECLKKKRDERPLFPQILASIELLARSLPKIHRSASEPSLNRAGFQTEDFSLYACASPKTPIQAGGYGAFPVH

As to `COc1cc2cc(Oc3ccc(NC(=O)Nc4cc(C(F)(F)F)cc(C(F)(F)F)c4)cc3)c(C)nc2cc1OC`, the growth at 10 µM with MDA-MB-468 [1] is -36%.
Take `Cc1nc2cc(O)c(O)cc2cc1Oc1ccc(NC(=O)Nc2ccc(Cl)c(Cl)c2)cc1`: the growth at 3 µM with MDA-MB-468 [2] was 92%.
Consider `COc1cc2cc(Oc3ccc(NC(=O)Nc4cccc(C(F)(F)F)c4)cc3)c(C)nc2cc1OC`, for which the growth at 50 µM is -85% in the experiment on HOP-62, -61% in the experiment on M14, -72% with A549 [5] and -59% with KM12. Further, the growth at 0.05 µM in the experiment with Hs-578T was found to be 100%; with HL-60(TB), 101%; in the experiment with EKVX, 102%; with NCI/ADR-RES, 101%; in the experiment on HCC 2998 it was 105%; with MDA-MB-435 [4], 96%. The growth at 0.5 µM was 92% with HCT-15; 91% in the experiment with SR; 89% in the experiment on MDA-MB-435 [3]; 99% with OVCAR-4; 92% with SK-MEL-28; 86% with A549 [6]. Moreover, the growth at 0.5 µM in the experiment with K562 stood at 93%; in the experiment with T47D [8], 94%. Besides, the growth at 0.005 µM with SK-OV-3 was determined as 98%; with RPMI-8226, 103%; in the experiment on SK-MEL-5, 96%; in the experiment on NCI-H322M, 91%; in the experiment with SF-539 it was 104%; with MCF7, 90%. The values for the growth at 0.005 µM with SN12C and in the experiment on U-251 were 95% and 98%, respectively. The growth at 5 µM in the experiment with OVCAR-3 was 15%; with IGROV-1 it was 31%; in the experiment on T47D [7], 7%.
By inhibition is commonly meant how much of the control response was suppressed. Turning to `COc1cc2cc(Oc3ccc(NC(=O)Nc4ccc(Cl)c(C(F)(F)F)c4)cc3)c(C)nc2cc1OC`, the growth at 0.3 µM in the experiment with LOX IMVI [9] was found to be 101%. Moreover, the inhibition in experiment [10] worked out at 88.9%. The growth at 0.03 µM with LOX IMVI [11] came to 99%.

Values taken from ChEMBL document CHEMBL3994622, “Design and synthesis of new RAF kinase-inhibiting antiproliferative quinoline derivatives. Part 2: Diarylurea derivatives” (Eur J Med Chem, 2017).
